The subject of series [1] is moderate to severe pain due to osteoarthritis of the knee. The note with it: one-time intraarticular dose 5 to 30 μg; cited from earlier work.
Series [2] concerns chronic osteoarthritic knee joint pain. Nature of the series: Randomized, double-blind, placebo-controlled, single-dose trial of intraarticular Resiniferatoxin (Example 3). The format is in vivo, human. Particulars: for subjects with severe adverse events: none considered related to investigational medicinal product or Ropivacaine. The method, then:
The primary objective of this study was to compare the analgesic effects of single intraarticular injections of Resiniferatoxin (100 or 400 ng) compared to placebo, at 3 and 6 months postinjection, in participants with chronic osteoarthritic knee joint pain. Secondary objectives were to evaluate the analgesic effects of Resiniferatoxin versus placebo in terms of a responder analysis (percentage of subjects achieving ≥50% or ≥70% reduction in visual analog scale pain score) and changes in Western Ontario and McMaster Universities Arthritis Index (WOMAC) total and subscale scores (pain, physical function and stiffness). Safety and injection site pain were also evaluated.
The study was conducted as a randomized, double-blind, placebo-controlled, single-dose trial of Resiniferatoxin. Eligible patients were aged 40 to 80 years with radiographic knee osteoarthritis (Kellgren-Lawrence Grade 2-4 in the last 3 years) and a baseline visual analog scale (0-100 mm) pain score ≥40 mm on motion in the target knee, with or without pain medication. 67 subjects were randomized to treatment with either Resiniferatoxin 100 ng (n=24) or 400 ng (n=23), or placebo (n=20), administered intraarticularly into the index knee. Intraarticular Ropivacaine (5 ml, 0.5%) was administered 15 mins before investigational medicinal product. Visual analog scale scores were used to evaluate pain on motion as the average of the last 2 days in a target knee between baseline and at 3 and 6 months post injection. Injection site pain was rated (visual analog scale) from baseline (−0.5 h) up to 3 h post intraarticular injections.

[3] abbreviates: single intraarticular dose 100 ng or 400 ng.

Bounds are passed on as bounds.

As for `C=C(C)[C@]12C[C@@H](C)[C@@]34O[C@](Cc5ccccc5)(O[C@@H]1[C@@H]3C=C(COC(=O)Cc1ccc(O)c(OC)c1)C[C@]1(O)C(=O)C(C)=C[C@@H]41)O2` [Resiniferatoxin, 4-hydroxy-3-methoxy-benzeneacetic acid, [(2S,3aR,3bS,6aR,9aR,9bR, 10R,11aR)-3a,3b,6,6a,9a,10,11,11a-octahydro-6a-hydroxy-8,10-dimethyl-11a-(1-methylethenyl)-7-oxo-2-(phenylmethyl)-7H-2,9b-epoxyazuleno[5,4-e]-1,3-benzodioxol-5-yl]methyl ester], the efficacy result in series [1] is reported as “Preliminary efficacy was also observed”. Besides, the “reduction in WOMAC total and subscale scores (pain, physical function and stiffness) compared to placebo” value in series [2] (100 ng and 400 ng, at both 3 and 6 months) is “greater reduction in WOMAC total and subscale scores”. Further, the “subjects with severe adverse events” value in series [2] (100 ng group (n=24)) was 2 subjects. In addition, the “pain reduction (VAS pain on motion) compared to placebo” value in series [2] (100 ng or 400 ng intraarticular) is recorded as “greater pain reduction than subjects receiving placebo”. Further, the “injection site pain (procedural pain) compared to placebo” value in series [2] (100 ng or 400 ng intraarticular, VAS up to 3 h post injection) was “generally higher”. For the same compound, the “subjects with severe adverse events” value in series [2] (400 ng group (n=23)) amounted to 3 subjects. For the same compound, the “first visit at which reduction in VAS pain on motion was observed” value in series [2] (intention-to-treat population, first trial visit post-injection) is at most 8 days. Besides, the “last visit until which reduction in VAS pain on motion lasted” value in series [2] (intention-to-treat population, last trial visit) was at least 6 month. In addition, the “time of return of injection site pain to baseline” value in series [2] (post-injection) is recorded as at most 3 h. Also, in series [2] (setting [3]), the analgesic onset entry is “within one week of administration”; the “duration of analgesia during follow-up” value is given as “at least 3 months”; the safety and tolerability result was “good safety profile and to have been well tolerated”.

These data come from patent US20250228775A1, “ETHANOLIC RESINIFERATOXIN CONCENTRATE” (Gruenenthal GmbH, priority 2024, published 2025).
